Our source for the relative viability values is the supplement of paper PMC10307832.

One assay relates to HCC-44. Description: relative viability (nuclei count vs DMSO), 5 days (fraction); higher = more cells survive. As to conditions: first compound 2.53 µM. The method, boiled down:
(§1)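 Dosing by pin tool came one day after lung cancer cell lines were seeded in 1536-well plates, using either one drug or a fixed anchor-drug dose plus five library-drug doses (not always all listed) in √10 steps. After 5 days, nuclei were counted on 4× images. Relative viability is treated-well nuclei count divided by vehicle-well nuclei count, and values are medians of duplicate plates.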
`Nc1cccc2c1CN(C1CCC(=O)NC1=O)C2=O` (configuration not stated) [Lenalidomide] + Nc1ncn([C@H]2C[C@H](O)[C@@H](CO)O2)c(=O)n1 [Decitabine] (partner 2 µM) came in with a relative viability of 1.01.
The same measure, in the same setting: the figure for `Nc1cccc2c1CN(C1CCC(=O)NC1=O)C2=O` (configuration not stated) [Lenalidomide] + N=C(N)NC(=N)NCCc1ccccc1 [Phenformin] (partner 250 µM) is 0.184; for `Nc1cccc2c1CN(C1CCC(=O)NC1=O)C2=O` (configuration not stated) [Lenalidomide] + Nc1nc2[nH]cc(CCc3ccc(C(=O)N[C@@H](CCC(=O)O)C(=O)O)cc3)c2c(=O)[nH]1 [Pemetrexed] (partner 0.2 µM) it is 0.631; for `Nc1cccc2c1CN(C1CCC(=O)NC1=O)C2=O` (configuration not stated) [Lenalidomide] + CC(=O)c1c(C)c2cnc(Nc3ccc(N4CCNCC4)cn3)nc2n(C2CCCC2)c1=O [Palbociclib] (partner 0.5 µM) it is 0.972.
Still for that read-out and setting: for `Nc1cccc2c1CN(C1CCC(=O)NC1=O)C2=O` (configuration not stated) [Lenalidomide] + O=C(CCCCCCC(=O)Nc1ccccc1)NO [Vorinostat] (partner 1 µM) the value was 1.04; for `Nc1cccc2c1CN(C1CCC(=O)NC1=O)C2=O` (configuration not stated) [Lenalidomide] + COc1cccc2cc(-c3nc([C@H]4CC[C@H](C(=O)O)CC4)n4ncnc(N)c34)[nH]c12 [OSI-027] (partner 0.5 µM), 0.535.

Staying with this assay, now noted: first compound 8 µM.
In turn, `Nc1cccc2c1CN(C1CCC(=O)NC1=O)C2=O` (configuration not stated) [Lenalidomide] + Nc1ncn([C@H]2C[C@H](O)[C@@H](CO)O2)c(=O)n1 [Decitabine] (partner 2 µM) gave a relative viability of 0.853.
On the same count and under the same terms, the figure for `Nc1cccc2c1CN(C1CCC(=O)NC1=O)C2=O` (configuration not stated) [Lenalidomide] + N=C(N)NC(=N)NCCc1ccccc1 [Phenformin] (partner 250 µM) is 0.216; for `Nc1cccc2c1CN(C1CCC(=O)NC1=O)C2=O` (configuration not stated) [Lenalidomide] + Nc1nc2[nH]cc(CCc3ccc(C(=O)N[C@@H](CCC(=O)O)C(=O)O)cc3)c2c(=O)[nH]1 [Pemetrexed] (partner 0.2 µM) it is 0.762.
Molecule `Nc1cccc2c1CN(C1CCC(=O)NC1=O)C2=O` (configuration not stated) [Lenalidomide] + CC(=O)c1c(C)c2cnc(Nc3ccc(N4CCNCC4)cn3)nc2n(C2CCCC2)c1=O [Palbociclib] (partner 0.5 µM) yielded a relative viability of 0.907.
The same measure, in the same setting: the figure for `Nc1cccc2c1CN(C1CCC(=O)NC1=O)C2=O` (configuration not stated) [Lenalidomide] + O=C(CCCCCCC(=O)Nc1ccccc1)NO [Vorinostat] (partner 1 µM) is 1.08; for `Nc1cccc2c1CN(C1CCC(=O)NC1=O)C2=O` (configuration not stated) [Lenalidomide] + COc1cccc2cc(-c3nc([C@H]4CC[C@H](C(=O)O)CC4)n4ncnc(N)c34)[nH]c12 [OSI-027] (partner 0.5 µM) it is 0.512.

For a further assay, the system named is HCC-78. The description is as above. As to conditions: first compound 0.253 µM. The essentials:
as §1
Turning to `Nc1cccc2c1CN(C1CCC(=O)NC1=O)C2=O` (configuration not stated) [Lenalidomide] + Nc1ncn([C@H]2C[C@H](O)[C@@H](CO)O2)c(=O)n1 [Decitabine] (partner 2 µM), the relative viability is 0.731.
Molecule `Nc1cccc2c1CN(C1CCC(=O)NC1=O)C2=O` (configuration not stated) [Lenalidomide] + N=C(N)NC(=N)NCCc1ccccc1 [Phenformin] (partner 250 µM) gave a relative viability of 0.825.
On the same count and under the same terms, the figure for `Nc1cccc2c1CN(C1CCC(=O)NC1=O)C2=O` (configuration not stated) [Lenalidomide] + Nc1nc2[nH]cc(CCc3ccc(C(=O)N[C@@H](CCC(=O)O)C(=O)O)cc3)c2c(=O)[nH]1 [Pemetrexed] (partner 0.2 µM) is 0.878.
The same measure, in the same setting: the figure for `Nc1cccc2c1CN(C1CCC(=O)NC1=O)C2=O` (configuration not stated) [Lenalidomide] + CC(=O)c1c(C)c2cnc(Nc3ccc(N4CCNCC4)cn3)nc2n(C2CCCC2)c1=O [Palbociclib] (partner 0.5 µM) is 0.48.
The same measure, in the same setting: the figure for `Nc1cccc2c1CN(C1CCC(=O)NC1=O)C2=O` (configuration not stated) [Lenalidomide] + O=C(CCCCCCC(=O)Nc1ccccc1)NO [Vorinostat] (partner 1 µM) is 0.447.
For the molecule `Nc1cccc2c1CN(C1CCC(=O)NC1=O)C2=O` (configuration not stated) [Lenalidomide] + COc1cccc2cc(-c3nc([C@H]4CC[C@H](C(=O)O)CC4)n4ncnc(N)c34)[nH]c12 [OSI-027] (partner 0.5 µM), the relative viability came to 0.418.

The assay is the same for the next values; noted with them: first compound 0.8 µM.
`Nc1cccc2c1CN(C1CCC(=O)NC1=O)C2=O` (configuration not stated) [Lenalidomide] + Nc1ncn([C@H]2C[C@H](O)[C@@H](CO)O2)c(=O)n1 [Decitabine] (partner 2 µM) registered a relative viability of 0.637.
On the same count and under the same terms, for `Nc1cccc2c1CN(C1CCC(=O)NC1=O)C2=O` (configuration not stated) [Lenalidomide] + N=C(N)NC(=N)NCCc1ccccc1 [Phenformin] (partner 250 µM) the value was 0.625.
Take `Nc1cccc2c1CN(C1CCC(=O)NC1=O)C2=O` (configuration not stated) [Lenalidomide] + Nc1nc2[nH]cc(CCc3ccc(C(=O)N[C@@H](CCC(=O)O)C(=O)O)cc3)c2c(=O)[nH]1 [Pemetrexed] (partner 0.2 µM): the relative viability stood at 0.936.
The same measure, in the same setting: for `Nc1cccc2c1CN(C1CCC(=O)NC1=O)C2=O` (configuration not stated) [Lenalidomide] + CC(=O)c1c(C)c2cnc(Nc3ccc(N4CCNCC4)cn3)nc2n(C2CCCC2)c1=O [Palbociclib] (partner 0.5 µM) the value was 0.416.
Still for that read-out and setting: for `Nc1cccc2c1CN(C1CCC(=O)NC1=O)C2=O` (configuration not stated) [Lenalidomide] + O=C(CCCCCCC(=O)Nc1ccccc1)NO [Vorinostat] (partner 1 µM) the value was 0.456.
Same read-out and setting: for `Nc1cccc2c1CN(C1CCC(=O)NC1=O)C2=O` (configuration not stated) [Lenalidomide] + COc1cccc2cc(-c3nc([C@H]4CC[C@H](C(=O)O)CC4)n4ncnc(N)c34)[nH]c12 [OSI-027] (partner 0.5 µM) the value was 0.35.

Still in this assay, the particulars now being: first compound 2.53 µM.
In turn, `Nc1cccc2c1CN(C1CCC(=O)NC1=O)C2=O` (configuration not stated) [Lenalidomide] + Nc1ncn([C@H]2C[C@H](O)[C@@H](CO)O2)c(=O)n1 [Decitabine] (partner 2 µM) displayed a relative viability of 0.703.
Still for that read-out and setting: for `Nc1cccc2c1CN(C1CCC(=O)NC1=O)C2=O` (configuration not stated) [Lenalidomide] + N=C(N)NC(=N)NCCc1ccccc1 [Phenformin] (partner 250 µM) the value was 0.909; for `Nc1cccc2c1CN(C1CCC(=O)NC1=O)C2=O` (configuration not stated) [Lenalidomide] + Nc1nc2[nH]cc(CCc3ccc(C(=O)N[C@@H](CCC(=O)O)C(=O)O)cc3)c2c(=O)[nH]1 [Pemetrexed] (partner 0.2 µM), 0.886; for `Nc1cccc2c1CN(C1CCC(=O)NC1=O)C2=O` (configuration not stated) [Lenalidomide] + CC(=O)c1c(C)c2cnc(Nc3ccc(N4CCNCC4)cn3)nc2n(C2CCCC2)c1=O [Palbociclib] (partner 0.5 µM), 0.463.
For `Nc1cccc2c1CN(C1CCC(=O)NC1=O)C2=O` (configuration not stated) [Lenalidomide] + O=C(CCCCCCC(=O)Nc1ccccc1)NO [Vorinostat] (partner 1 µM), the relative viability was 0.474.
Still for that read-out and setting: the figure for `Nc1cccc2c1CN(C1CCC(=O)NC1=O)C2=O` (configuration not stated) [Lenalidomide] + COc1cccc2cc(-c3nc([C@H]4CC[C@H](C(=O)O)CC4)n4ncnc(N)c34)[nH]c12 [OSI-027] (partner 0.5 µM) is 0.376.

The assay is the same for the next values; noted with them: first compound 8 µM.
Molecule `Nc1cccc2c1CN(C1CCC(=O)NC1=O)C2=O` (configuration not stated) [Lenalidomide] + Nc1ncn([C@H]2C[C@H](O)[C@@H](CO)O2)c(=O)n1 [Decitabine] (partner 2 µM) came in with a relative viability of 0.558.
On the same count and under the same terms, for `Nc1cccc2c1CN(C1CCC(=O)NC1=O)C2=O` (configuration not stated) [Lenalidomide] + N=C(N)NC(=N)NCCc1ccccc1 [Phenformin] (partner 250 µM) the value was 0.448.
